This is an account of results in patent publication US20250171438A1 (Agios Pharmaceuticals, Inc., priority 2022, published 2025).

Molecules are shown by their SMILES. Some results are limits rather than exact numbers.

In the assay the target is T1, human PAH with the R408W mutation (Homo sapiens, UniProt P00439, R408W).
T1 construct: expressed in transfected cells
T1 sequence (P00439 1-452 R408W): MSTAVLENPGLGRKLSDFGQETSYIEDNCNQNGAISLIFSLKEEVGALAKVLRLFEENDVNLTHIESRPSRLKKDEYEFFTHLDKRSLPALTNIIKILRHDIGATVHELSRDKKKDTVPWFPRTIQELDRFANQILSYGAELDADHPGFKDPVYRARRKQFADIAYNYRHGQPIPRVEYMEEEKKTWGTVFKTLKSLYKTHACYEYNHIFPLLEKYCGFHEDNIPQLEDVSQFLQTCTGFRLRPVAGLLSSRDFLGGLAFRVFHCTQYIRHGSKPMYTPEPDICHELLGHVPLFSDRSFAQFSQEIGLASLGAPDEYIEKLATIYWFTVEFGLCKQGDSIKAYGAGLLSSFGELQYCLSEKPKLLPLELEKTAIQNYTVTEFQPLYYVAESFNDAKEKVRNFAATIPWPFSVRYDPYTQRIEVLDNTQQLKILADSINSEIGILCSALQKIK
As to the kind of experiment: Cell Based Phenylalanine Flux Assay. The conditions noted are these: A375 cells expressing human R408W PAH; 24 hrs compound incubation; 13C-Tyrosine by LC-MS; average where tested multiple times; read-out: AC50.

Usually AC50 stands for the midpoint of the concentration-response curve, whichever way the signal moves.

For the compound `O=C(CCC1CC1)N1CCc2[nH]cnc2[C@@H]1c1nc2ccc(F)cc2[nH]1` [Example 961, (R)-3-cyclopropyl-1-(4-(6-fluoro-1H-benzo[d]imidazol-2-yl)-6,7-dihydro-1H-imidazo[4,5-c]pyridin-5(4H)-yl)propan-1-one], the AC50 is above 5000 nM. With `O=C(CCC1CC1)N1CCc2[nH]cnc2[C@H]1c1nc2ccc(F)cc2[nH]1` [Example 962, (S)-3-cyclopropyl-1-(4-(6-fluoro-1H-benzo[d]imidazol-2-yl)-6,7-dihydro-1H-imidazo[4,5-c]pyridin-5(4H)-yl)propan-1-one], the half-maximal activity concentration (AC50) was below 500 nM. Next, `O=C(CC1CC1)N1CCc2[nH]cnc2[C@@H]1c1nc2ccc(F)cc2[nH]1` [Example 963, (R)-2-cyclopropyl-1-(4-(6-fluoro-1H-benzo[d]imidazol-2-yl)-6,7-dihydro-1H-imidazo[4,5-c]pyridin-5(4H)-yl)ethanone]: 1000 to 5000 nM; `O=C(CC1CC1)N1CCc2[nH]cnc2[C@H]1c1nc2ccc(F)cc2[nH]1` [Example 964, (S)-2-cyclopropyl-1-(4-(6-fluoro-1H-benzo[d]imidazol-2-yl)-6,7-dihydro-1H-imidazo[4,5-c]pyridin-5(4H)-yl)ethanone]: 500 to 1000 nM. Regarding `O=C(c1cnn2ccc(Cl)cc12)N1CCc2[nH]cnc2[C@H]1c1nc2ccc(Br)cc2[nH]1` [Example 965, (S)-(4-(6-bromo-1H-benzo[d]imidazol-2-yl)-6,7-dihydro-1H-imidazo[4,5-c]pyridin-5(4H)-yl)(5-chloropyrazolo[1,5-a]pyridin-3-yl)methanone], the AC50 was 1000 to 5000 nM. Next, `O=C(c1cnn2ccc(Cl)cc12)N1CCc2[nH]cnc2[C@@H]1c1nc2ccc(Br)cc2[nH]1` [Example 966, (R)-(4-(6-bromo-1H-benzo[d]imidazol-2-yl)-6,7-dihydro-1H-imidazo[4,5-c]pyridin-5(4H)-yl)(5-chloropyrazolo[1,5-a]pyridin-3-yl)methanone]: above 5000 nM; `O=C(c1cnn2cc(F)ccc12)N1CCc2[nH]cnc2[C@H]1c1nc2ccc(Br)cc2[nH]1` [Example 967, (S)-(4-(6-bromo-1H-benzo[d]imidazol-2-yl)-6,7-dihydro-1H-imidazo[4,5-c]pyridin-5(4H)-yl)(6-fluoropyrazolo[1,5-a]pyridin-3-yl)methanone]: 500 to 1000 nM.

On to `O=C(c1ccon1)N1CCc2[nH]cnc2[C@H]1c1nc2ccc(Cl)cc2[nH]1` [Example 969, (S)-(4-(6-chloro-1H-benzo[d]imidazol-2-yl)-6,7-dihydro-1H-imidazo[4,5-c]pyridin-5(4H)-yl)(isoxazol-3-yl)methanone], for which the concentration at half-maximal activity (AC50) lay within 500 to 1000 nM. Consider `O=C(c1ccon1)N1CCc2[nH]cnc2[C@@H]1c1nc2ccc(Cl)cc2[nH]1` [Example 970, (R)-(4-(6-chloro-1H-benzo[d]imidazol-2-yl)-6,7-dihydro-1H-imidazo[4,5-c]pyridin-5(4H)-yl)(isoxazol-3-yl)methanone], for which the AC50 lay in the range of 1000 to 5000 nM. For `Brc1ccc2nc([C@@H]3c4nc[nH]c4CCN3Cc3nccs3)[nH]c2c1` [Example 971, (S)-2-((4-(6-bromo-1H-benzo[d]imidazol-2-yl)-6,7-dihydro-1H-imidazo[4,5-c]pyridin-5(4H)-yl)methyl)thiazole], the AC50 was below 500 nM. Take `Fc1ccc2nc([C@@H]3c4nc[nH]c4CCN3Cc3nccs3)[nH]c2c1` [Example 974, (S)-2-((4-(6-fluoro-1H-benzo[d]imidazol-2-yl)-6,7-dihydro-1H-imidazo[4,5-c]pyridin-5(4H)-yl)methyl)thiazole]: the AC50 was below 500 nM. Next, `O=C(c1ncc(Cl)s1)N1CCc2[nH]cnc2[C@H]1c1nc2ccc(Br)cc2[nH]1` [Example 975, (S)-(4-(6-bromo-1H-benzo[d]imidazol-2-yl)-6,7-dihydro-1H-imidazo[4,5-c]pyridin-5(4H)-yl)(5-chlorothiazol-2-yl)methanone]: 500 to 1000 nM. `O=C(c1ncc(Cl)s1)N1CCc2[nH]cnc2[C@@H]1c1nc2ccc(Br)cc2[nH]1` [Example 976, (R)-(4-(6-bromo-1H-benzo[d]imidazol-2-yl)-6,7-dihydro-1H-imidazo[4,5-c]pyridin-5(4H)-yl)(5-chlorothiazol-2-yl)methanone]: the concentration at half-maximal activity (AC50) was above 5000 nM. For `O=C(c1nncs1)N1CCc2[nH]cnc2[C@H]1c1nc2ccc(Br)cc2[nH]1` [Example 977, (S)-(4-(6-bromo-1H-benzo[d]imidazol-2-yl)-6,7-dihydro-1H-imidazo[4,5-c]pyridin-5(4H)-yl)(1,3,4-thiadiazol-2-yl)methanone], the AC50 was 500 to 1000 nM.

Consider `O=C(c1nncs1)N1CCc2[nH]cnc2[C@@H]1c1nc2ccc(Br)cc2[nH]1` [Example 978, (R)-(4-(6-bromo-1H-benzo[d]imidazol-2-yl)-6,7-dihydro-1H-imidazo[4,5-c]pyridin-5(4H)-yl)(1,3,4-thiadiazol-2-yl)methanone], for which the AC50 is above 5000 nM. As to `Clc1cnc(CN2CCc3[nH]cnc3[C@@H]2c2nc3ccccc3[nH]2)s1` [Example 979, (R)-2-((4-(1H-benzo[d]imidazol-2-yl)-6,7-dihydro-1H-imidazo[4,5-c]pyridin-5(4H)-yl)methyl)-5-chlorothiazole], the AC50 is above 5000 nM.

Take `Clc1cnc(CN2CCc3[nH]cnc3[C@H]2c2nc3ccccc3[nH]2)s1` [Example 980, (S)-2-((4-(1H-benzo[d]imidazol-2-yl)-6,7-dihydro-1H-imidazo[4,5-c]pyridin-5(4H)-yl)methyl)-5-chlorothiazole]: the AC50 lay in the range of 500 to 1000 nM.

As for `O=C(c1ccon1)N1CCc2[nH]cnc2[C@H]1c1nc2ccc(Br)cc2[nH]1` [Example 981, (S)-(4-(6-bromo-1H-benzo[d]imidazol-2-yl)-6,7-dihydro-1H-imidazo[4,5-c]pyridin-5(4H)-yl)(isoxazol-3-yl)methanone], the AC50 was below 500 nM. `O=C(c1ccon1)N1CCc2[nH]cnc2[C@@H]1c1nc2ccc(Br)cc2[nH]1` [Example 982, (R)-(4-(6-bromo-1H-benzo[d]imidazol-2-yl)-6,7-dihydro-1H-imidazo[4,5-c]pyridin-5(4H)-yl)(isoxazol-3-yl)methanone]: the half-maximal activity concentration (AC50) lay within 1000 to 5000 nM. Next, `O=C(c1nccs1)N1CCc2[nH]cnc2[C@@H]1c1nc2cccc(Cl)c2[nH]1` [Example 983, (R)-(4-(7-chloro-1H-benzo[d]imidazol-2-yl)-6,7-dihydro-1H-imidazo[4,5-c]pyridin-5(4H)-yl)(thiazol-2-yl)methanone]: above 5000 nM; `O=C(c1nccs1)N1CCc2[nH]cnc2[C@H]1c1nc2cccc(Cl)c2[nH]1` [Example 984, (S)-(4-(7-chloro-1H-benzo[d]imidazol-2-yl)-6,7-dihydro-1H-imidazo[4,5-c]pyridin-5(4H)-yl)(thiazol-2-yl)methanone]: 500 to 1000 nM. For `O=C(c1cnn2ccccc12)N1CCc2[nH]cnc2[C@@H]1c1nc2cccc(Cl)c2[nH]1` [Example 985, (R)-(4-(7-chloro-1H-benzo[d]imidazol-2-yl)-6,7-dihydro-1H-imidazo[4,5-c]pyridin-5(4H)-yl)(pyrazolo[1,5-a]pyridin-3-yl)methanone], the AC50 was above 5000 nM.

For the compound `O=C(c1cnn2ccccc12)N1CCc2[nH]cnc2[C@H]1c1nc2cccc(Cl)c2[nH]1` [Example 986, (S)-(4-(7-chloro-1H-benzo[d]imidazol-2-yl)-6,7-dihydro-1H-imidazo[4,5-c]pyridin-5(4H)-yl)(pyrazolo[1,5-a]pyridin-3-yl)methanone], the half-maximal activity concentration (AC50) lay in the range of 500 to 1000 nM.
